Columns and labels:
human CRTH2 [1] = target: T1, human CRTH2 (Homo sapiens (Human), UniProt Q9Y5Y4); assay: Human CRTH2 Receptor Binding Assay (whole cell, [3H]ramatroban); details: CHO-K1 cells expressing human CRTH2 and G-alpha16; 20 nM [3H]ramatroban; 1 hour, room temperature
From the text: Human CRTH2 Receptor Binding Assay
A whole cell receptor binding assay using [^3H]ramatroban as the competing radioactive ligand was employed to evaluate the compound binding activity to human CRTH2. The radioactive ligand [^3H]ramatroban was synthesized according to Sugimoto et. al. (Eur. J. Pharmacol. 524, 30-37, 2005) to a specific activity of 42 Ci/mmol.
A cell line stably expressing human CRTH2 was established by transfecting CHO-K1 cells with two mammalian expression vectors that harbored human CRTH2 and G-alpha16 cDNAs, respectively, using FuGene® 6 transfection reagent (from Roche). Stable clones expressing CRTH2 were selected by staining each clone with BM16 (BD Pharmingen™ from BD Biosciences, a division of Becton, Dickinson and Company), which is a rat monoclonal antibody to human CRTH2. The cells were maintained as monolayer cultures in Ham's F-12 medium containing 10% fetal bovine serum, 100 units/mL penicillin, 100 μg/mL streptomycin, 2 mM glutamine, 0.5 mg/mL G418 (geneticin) for CRTH2, and 0.2 mg/mL hygromycin-B (for G-alpha 16). For whole cell receptor binding assay, the monolayer cells were rinsed once with PBS (phosphate buffered saline), dissociated using ethylenediaminetetraacetate (Versene™ EDTA from Lonza Inc.), and suspended in PBS containing 10 mM MgCl2 and 0.06% BSA (bovine serum albumin) at 1.5×10^6 cells/mL.
The binding reactions (0.2 mL) were performed in 96-well plates at room temperature in PBS containing 1.5×10^5 cells, 10 mM MgCl2, 0.06% BSA, 20 nM [^3H]ramatroban, and test compound at various concentrations. After 1 hour of binding reactions, the cells were harvested on GF™/B filter microplates (microtiter plates with embedded glass fiber from PerkinElmer, Inc.) and washed 5 times with PBS using a Filtermate™ Harvester (a cell harvester that harvests and washes cells from microplates from PerkinElmer, Inc.). The radioactivities bound to the cells were determined using a microplate scintillation counter (TopCount® NXT, from PerkinElmer, Inc.) after adding 50 μL of Microscint™ 20 scintillation fluid (from PerkinElmer, Inc.) to each well of the filter plates. The radioactivity from non-specific binding was determined by replacing compound with 10 μM of 15(R)-15-methyl PGD2 (from Cayman Chemical Company) in the reaction mixtures. The radioactivity bound to the cells in the absence of compound (total binding) was determined by replacing compound with 0.25% of DMSO (dimethyl sulfoxide) in the reaction mixture. Specific binding data were obtained by subtracting the radioactivity of non-specific binding from each binding data.
The IC50 value is defined as the concentration of the tested compound that is required for 50% inhibition of total specific binding. In order to calculate the IC50 value, the percent inhibition data were determined for 7 concentrations for each compound. The percent inhibition for a compound at each concentration was calculated according to the following formula, [1-(specific binding in the presence of compound)/(total specific binding)]×100. The IC50 value was then obtained by fitting the percent inhibition data to a sigmoidal dose-response (4 parameter logistic) model in the XLfit® software Excel add-in program [from ID Business Solutions Ltd., model 205, where F(x)=(A+(B−A)/(1+((C/x)^D)))].

human CRTH2 [2] = target: T1, human CRTH2; assay: Calcium Flux Assay Using Fluorometric Imaging Plate Reader (FLIPR); assay type: cell-based; details: CHO-K1 cells with G-alpha 16 and human CRTH2; inhibition of DK-PGD2 ligand-induced Ca2+ flux
Th2 cells = assay: DK-PGD2-Induced IL-13 Production Assay in Th2 Cells; assay type: cell-based; details: human Th2 cells; 500 nM DK-PGD2; 4 hrs at 37° C.; IL-13 by ELISA
Experimental: DK-PGD2-Induced IL-13 Production Assay in Th2 Cells
Cultures of Th2 cells were established from blood of healthy human volunteers according to the following procedure. Peripheral blood mononuclear cells (PBMC) were first isolated from 50 mL of fresh blood by Ficoll-Hypaque density gradient centrifugation, followed by CD4^+ cell purification using a CD4^+ T Cell Isolation Kit II (from Miltenyi Biotec Inc.). The CD4^+ T cells were then differentiated to Th2 cells by culturing the cells in X-VIVO 15® medium (from Cambrex BioScience Walkersville Inc.) containing 10% human AB serum (serum of blood type AB from Invitrogen Corporation), 50 U/mL of recombinant human interleukin-2 (rhIL-2) (from PeproTech Inc.) and 100 ng/mL of recombinant human interleukin-4 (rhIL-4) (from PeproTech Inc.) for 7 days. […] In general, 70% to 80% of the Th2 cells used in the assay are CRTH2-positive when analyzed by fluorescence-activated cell sorting using the BM16 antibody (as previously described) conjugated to Alexa Fluor 647.
The spontaneous production of IL-13 by Th2 cells was determined in the absence of DK-PGD2 stimulation and the value was subtracted from that in the presence of each compound for percent inhibition and IC50 calculations. […]

T1 sequence (Q9Y5Y4 whole entry): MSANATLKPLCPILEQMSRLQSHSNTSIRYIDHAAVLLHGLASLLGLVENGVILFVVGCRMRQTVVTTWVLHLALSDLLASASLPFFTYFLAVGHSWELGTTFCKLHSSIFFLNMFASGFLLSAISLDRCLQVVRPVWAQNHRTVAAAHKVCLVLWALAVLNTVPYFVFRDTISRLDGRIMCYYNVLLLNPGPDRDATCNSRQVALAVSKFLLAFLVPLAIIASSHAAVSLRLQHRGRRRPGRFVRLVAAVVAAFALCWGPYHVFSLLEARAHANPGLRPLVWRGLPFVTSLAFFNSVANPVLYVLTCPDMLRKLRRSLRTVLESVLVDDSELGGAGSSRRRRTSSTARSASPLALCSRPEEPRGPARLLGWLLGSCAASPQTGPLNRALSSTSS

SMILES	IC50 (human CRTH2 [1]) [nM]	IC50 (human CRTH2 [2]) [nM]	IC50 (Th2 cells) [nM]
Cc1c(CC(=O)O)cc2ccc(F)cc2c1-c1ccc(S(C)(=O)=O)cc1 [Example 54, [6-Fluoro-4-(4-methansulfonyl-phenyl)-3-methyl-naphthalen-2-yl]-acetic acid]	40	25	–
Cc1c(CC(=O)O)cc2ccc(Cl)cc2c1-c1ccc(S(=O)(=O)N2CCCC2)cc1 [Example 33, {6-Chloro-3-methyl-4-[4-(pyrrolidine-1-sulfonyl)-phenyl]-naphthalen-2-yl}-acetic acid]	–	0.8	8

Source: US9000044B2, “Substituted naphthylacetic acids” (Hoffmann-La Roche Inc., priority 2012, dated 2015)
